Experimental data from patent publication US8802866B2, “Pyridinylimidazolone derivatives for the inhibition of PI3 kinases” (Merck Patent GmbH, priority 2009, dated 2014).
pIC50, pKd: −log10 of the molar value.

Legend:
[1] = test system: PI3K-dependent phosphorylation of PKB at Serin 473 in PC3 cells; experiment: Cellular PI3K assay (P-S473-PKB Luminex assay in PC3 cells); format: cell-based; settings: Homo sapiens, PC-3, 0.5 h; PC3 cells, 30 min, serum-free, P-S473-PKB; read-out: IC50 (cell)
Procedure: The cellular assay for determination of the P-S473-PKB level is carried out as a Luminex assay in 96-well format in PC3 cells.
PC3 cells are sown out with 20,000 cells per well in 100 μl medium (45% […]/45% Ham's F12/10% FCS) and incubated on the following day for 30 min with a serial dilution of the test substance (7 concentrations) under serum-free conditions. The cells are subsequently lysed using 90 μl of lysis buffer (20 mM Tris/HCl pH 8.0, 150 mM NaCl, 1% NP40, 10% glycerol, 1% phosphatase inhibitor I, 1% phosphatase inhibitor II, 0.1% protease inhibitor cocktail III, 0.01% benzonase) per well, and the lysates are separated off from insoluble cell constituents by means of centrifugation through a 96-well filter plate (0.65 μm). The lysates are incubated overnight at 4° C. with shaking with Luminex beads to which an anti-total PKB antibody is coupled. The detection is carried out on the following day by addition of a P-S473-PKB antibody and a species-specific PE-labelled secondary antibody. The detection of P-S473-PKB is carried out by measurement in a Luminex100 instrument by determination of 100 events per cavity in a measurement time of 60 sec.

[2] = biological target: PI3Kalpha (Homo sapiens, UniProt P42336); experiment: Biochemical PI3Kalpha assay (neomycin SPA, lipid phosphorylation); settings: human recombinant GST-PI3K
PI3Kalpha, sequence (P42336 whole entry): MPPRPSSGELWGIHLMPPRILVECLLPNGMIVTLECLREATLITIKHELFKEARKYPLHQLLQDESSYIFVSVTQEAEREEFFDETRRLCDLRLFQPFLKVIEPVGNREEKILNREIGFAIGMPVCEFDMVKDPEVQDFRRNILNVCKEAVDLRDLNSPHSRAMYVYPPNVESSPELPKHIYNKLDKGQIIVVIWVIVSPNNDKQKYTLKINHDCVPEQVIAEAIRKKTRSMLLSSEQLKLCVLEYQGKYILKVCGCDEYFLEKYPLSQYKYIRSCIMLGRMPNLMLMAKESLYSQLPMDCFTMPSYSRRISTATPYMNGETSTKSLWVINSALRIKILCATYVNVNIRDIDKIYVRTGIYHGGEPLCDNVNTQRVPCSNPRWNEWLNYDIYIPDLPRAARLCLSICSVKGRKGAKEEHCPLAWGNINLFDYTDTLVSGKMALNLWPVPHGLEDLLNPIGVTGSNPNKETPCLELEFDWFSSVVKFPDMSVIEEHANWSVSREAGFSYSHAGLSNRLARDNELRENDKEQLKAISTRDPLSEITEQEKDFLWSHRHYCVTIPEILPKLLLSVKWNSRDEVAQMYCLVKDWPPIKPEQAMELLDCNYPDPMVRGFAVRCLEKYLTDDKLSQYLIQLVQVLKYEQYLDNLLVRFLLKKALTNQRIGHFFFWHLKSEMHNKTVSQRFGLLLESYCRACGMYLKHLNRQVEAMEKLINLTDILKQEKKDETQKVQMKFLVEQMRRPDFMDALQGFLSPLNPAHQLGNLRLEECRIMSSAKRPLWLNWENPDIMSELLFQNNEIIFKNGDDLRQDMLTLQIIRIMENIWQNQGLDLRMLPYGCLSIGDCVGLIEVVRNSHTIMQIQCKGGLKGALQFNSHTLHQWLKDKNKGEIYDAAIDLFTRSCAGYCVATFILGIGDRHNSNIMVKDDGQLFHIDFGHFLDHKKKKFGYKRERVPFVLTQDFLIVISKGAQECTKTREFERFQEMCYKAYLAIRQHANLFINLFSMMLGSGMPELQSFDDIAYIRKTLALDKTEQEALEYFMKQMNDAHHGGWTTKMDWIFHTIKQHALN
PI3Kalpha, sequence (P27986 whole entry partner): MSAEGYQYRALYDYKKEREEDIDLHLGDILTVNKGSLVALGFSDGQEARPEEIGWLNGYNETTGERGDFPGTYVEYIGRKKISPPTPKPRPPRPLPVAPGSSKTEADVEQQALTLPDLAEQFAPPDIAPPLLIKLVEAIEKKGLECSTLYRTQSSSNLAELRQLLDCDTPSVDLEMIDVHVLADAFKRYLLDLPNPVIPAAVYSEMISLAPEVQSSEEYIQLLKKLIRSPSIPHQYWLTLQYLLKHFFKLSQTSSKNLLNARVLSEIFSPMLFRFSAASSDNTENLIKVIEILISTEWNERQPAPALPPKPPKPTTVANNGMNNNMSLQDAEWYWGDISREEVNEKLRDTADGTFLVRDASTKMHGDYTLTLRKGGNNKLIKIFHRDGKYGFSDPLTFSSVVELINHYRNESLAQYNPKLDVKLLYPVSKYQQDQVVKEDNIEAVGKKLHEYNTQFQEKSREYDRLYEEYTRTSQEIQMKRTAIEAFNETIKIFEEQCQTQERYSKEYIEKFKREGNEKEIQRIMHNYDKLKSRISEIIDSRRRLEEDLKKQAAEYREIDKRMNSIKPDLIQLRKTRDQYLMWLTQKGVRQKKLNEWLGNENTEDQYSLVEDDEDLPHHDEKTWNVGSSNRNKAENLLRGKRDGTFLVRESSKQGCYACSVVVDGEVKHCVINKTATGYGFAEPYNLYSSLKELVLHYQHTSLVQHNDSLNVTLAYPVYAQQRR
Procedure: (§1) The efficacy of the compounds according to the invention in the inhibition of PI3K-induced lipid phosphorylation can be investigated in the following binding assay. The assay combines scintillation proximity assay (SPA) technology (Amersham) with the ability of neomycin (a polycationic antibiotic) to bind phospholipids with high affinity and specificity. […] The coating of SPA beads with neomycin allows the detection of phosphorylated lipid substrates after incubation with recombinant PI3K and radioactive ATP in the same well by trapping the radioactive phospholipids by the SPA beads owing to their specific binding to neomycin. […] After incubation at room temperature for 120 minutes with gentle stirring, the reaction was stopped by addition of 200 μl of a solution comprising 250 μg of neomycin-coated PVT-SPA beads, ATP 60 mM and EDTA 6.2 mM in PBS. The assay is incubated at room temperature for a further 60 minutes with gentle stirring in order to enable binding of the phospholipids to the neomycin-SPA beads. After precipitation of the neomycin-coated PVT-SPA beads over 5 minutes at 1500×g, radioactive Ptdlns(3)P is quantified by scintillation counting in a Wallac Micro-Beta™ plate counter.

[3] = biological target: PI3Kbeta (Homo sapiens, UniProt P42338); experiment: Biochemical PI3Kbeta assay (neomycin SPA, lipid phosphorylation); settings: human recombinant GST-PI3K
PI3Kbeta, sequence (P42338 whole entry): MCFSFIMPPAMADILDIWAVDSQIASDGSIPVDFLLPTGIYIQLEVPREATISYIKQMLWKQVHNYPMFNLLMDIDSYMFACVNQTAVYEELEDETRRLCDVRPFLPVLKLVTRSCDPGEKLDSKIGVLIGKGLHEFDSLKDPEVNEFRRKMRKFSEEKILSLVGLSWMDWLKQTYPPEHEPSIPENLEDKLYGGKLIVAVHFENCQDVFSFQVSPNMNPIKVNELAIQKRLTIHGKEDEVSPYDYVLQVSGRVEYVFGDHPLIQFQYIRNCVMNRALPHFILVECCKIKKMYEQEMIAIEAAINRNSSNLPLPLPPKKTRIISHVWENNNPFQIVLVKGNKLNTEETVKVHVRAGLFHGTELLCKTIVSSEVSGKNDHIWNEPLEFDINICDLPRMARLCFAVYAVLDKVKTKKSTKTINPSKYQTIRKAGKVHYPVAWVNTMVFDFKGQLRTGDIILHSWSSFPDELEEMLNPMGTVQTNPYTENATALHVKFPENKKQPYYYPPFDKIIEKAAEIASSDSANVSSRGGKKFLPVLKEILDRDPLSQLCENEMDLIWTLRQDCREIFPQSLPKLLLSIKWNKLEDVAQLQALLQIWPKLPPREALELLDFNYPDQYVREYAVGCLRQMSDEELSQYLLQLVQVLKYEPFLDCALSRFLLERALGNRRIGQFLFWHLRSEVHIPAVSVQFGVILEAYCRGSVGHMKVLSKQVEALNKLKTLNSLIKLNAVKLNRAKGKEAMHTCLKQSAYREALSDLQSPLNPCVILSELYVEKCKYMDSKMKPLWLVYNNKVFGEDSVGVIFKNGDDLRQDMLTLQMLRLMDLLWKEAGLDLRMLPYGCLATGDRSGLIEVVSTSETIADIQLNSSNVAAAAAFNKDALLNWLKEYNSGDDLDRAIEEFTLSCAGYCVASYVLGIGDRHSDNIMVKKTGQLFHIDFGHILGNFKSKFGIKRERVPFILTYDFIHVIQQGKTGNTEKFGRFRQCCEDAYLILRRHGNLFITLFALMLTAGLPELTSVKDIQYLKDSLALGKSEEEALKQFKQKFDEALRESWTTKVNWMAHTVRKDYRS
PI3Kbeta, sequence (P27986 whole entry partner): as the sequence (P27986 whole entry partner) above
Procedure: as §1

[4] = biological target: recombinant PI3Kalpha (shortened form of the catalytic subunit) (Homo sapiens, UniProt P42336); experiment: BIACORE PI3K binding assay (SPR); settings: 25° C.
recombinant PI3Kalpha (shortened form of the catalytic subunit), sequence (P42336 151-1068 limits assumed): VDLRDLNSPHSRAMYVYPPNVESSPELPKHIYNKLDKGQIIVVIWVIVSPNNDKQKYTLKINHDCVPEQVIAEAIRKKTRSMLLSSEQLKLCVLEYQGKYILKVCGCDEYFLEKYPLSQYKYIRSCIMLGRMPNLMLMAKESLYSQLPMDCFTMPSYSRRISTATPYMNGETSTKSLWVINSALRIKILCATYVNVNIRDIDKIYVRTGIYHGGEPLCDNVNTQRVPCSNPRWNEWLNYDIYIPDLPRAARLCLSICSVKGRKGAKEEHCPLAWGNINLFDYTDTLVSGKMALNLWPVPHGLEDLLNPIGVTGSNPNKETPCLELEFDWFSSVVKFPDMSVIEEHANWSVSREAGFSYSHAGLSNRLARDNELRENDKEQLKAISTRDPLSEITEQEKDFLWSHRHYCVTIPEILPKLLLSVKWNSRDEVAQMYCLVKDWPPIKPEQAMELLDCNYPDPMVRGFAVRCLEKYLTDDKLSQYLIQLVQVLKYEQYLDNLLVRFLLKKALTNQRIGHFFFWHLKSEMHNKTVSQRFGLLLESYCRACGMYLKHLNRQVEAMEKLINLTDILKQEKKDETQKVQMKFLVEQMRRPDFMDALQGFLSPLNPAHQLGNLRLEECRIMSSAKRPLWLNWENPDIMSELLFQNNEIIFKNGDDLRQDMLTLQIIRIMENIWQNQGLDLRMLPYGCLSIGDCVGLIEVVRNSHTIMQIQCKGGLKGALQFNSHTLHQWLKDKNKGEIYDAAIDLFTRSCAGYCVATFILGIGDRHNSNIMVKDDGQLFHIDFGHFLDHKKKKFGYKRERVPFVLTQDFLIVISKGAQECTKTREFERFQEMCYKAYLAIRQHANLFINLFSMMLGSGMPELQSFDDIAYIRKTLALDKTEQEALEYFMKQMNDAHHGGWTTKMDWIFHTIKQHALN
Procedure: SPR measurements of the binding affinities and binding kinetics on PI3Kalpha surfaces with the aid of Biacore systems. The experiments are carried out on a Biacore S51 “Compound Characterization” or a Biacore T100 instrument utilising the default application “Kinetics/Affinity” Experimental conditions: recombinant PI3Kalpha (shortened form of the catalytic subunit, missing N terminal from about 100 to 150 aa, Mw about 110 kDa, prepared by Proteros Biostructures GmbH) is immobilised on Biacore CM5 chips (25° C., flow rate: 10 μl/min, utilising amine coupling at pH 7.40—Biacore Standard protocol). PI3Kalpha is employed in concentrations between 10 and 25 μg/ml. Depending on the duration of the injection time, immobilisation levels from 1700 to 11000 RU are achieved. The substances to be measured are added in the form of a titration series. The substance concentration is doubled for each subsequent injection. 10 different substance concentrations which cover a 500-fold dilution range are usually injected. […] Kinetic titration experiments are carried out at 25° C. with a flow rate of 30 μl/min, the sample contact time is 180 s, and the dissociation time is 240 s in a running buffer (20 mM HEPES pH7.40, 150 mM NaCl, 5 mM MgCl2, 1 mM DTT, 0.1 mM EDTA, 0.05% Tween 20) comprising 2% of DMSO. Buffer injections (as double references) identical to the sample injections are carried out in each case at the beginning of a continuous series. Solvent correction cycles (eight correction points, 1.4%-2.8% DMSO) are carried out at equal intervals. In order to condition the surface, at least five start-up cycles (buffer injections) are carried out. Data points are collected with a sample rate of 10 Hz. Surface regeneration is carried out after each measurement cycle, apart from after the solvent correction runs. For this purpose, two times 100 mM NaHCO3 pH 8.60 are injected for 30 sec. Data sets are processed and analysed using the Biacore S51 Evaluation software, version 1.2.1, or Biacore T100 Evaluation, version 2.0. Solvent-corrected and double-referenced association and dissociation phase data are adapted to a simple 1:1 interaction model with mass transport limitations.

[5] = biological target: DNA-PK protein complex (Homo sapiens, UniProt P78527); experiment: Biochemical DNA-PK assay (FlashPlate)
Procedure: The kinase assay is carried out in […] microtitre FlashPlates®, coated with streptavidin. […] The reaction is stopped by addition of 50 μl/well of 200 mM EDTA. After incubation for 30 minutes, the liquids are removed at room temperature. Each well is washed three times with 100 μl of 0.9% NaCl solution. Non-specific reaction (blank) is determined using a proprietary kinase inhibitor (10 μM). The radioactivity is measured by means of a Topcount. […] Todd Eary, J. G. Schiro, H. Huang, L. E. Burgess, E. A. Kesicki, and J. Halbrook.

[6] = biological target: T1, mTOR (Homo sapiens, UniProt P42345); experiment: Biochemical mTOR assay (Millipore mTOR assay kit)
T1 construct: purchased Millipore 14-770
T1 sequence (P42345 1362-2549 limits assumed): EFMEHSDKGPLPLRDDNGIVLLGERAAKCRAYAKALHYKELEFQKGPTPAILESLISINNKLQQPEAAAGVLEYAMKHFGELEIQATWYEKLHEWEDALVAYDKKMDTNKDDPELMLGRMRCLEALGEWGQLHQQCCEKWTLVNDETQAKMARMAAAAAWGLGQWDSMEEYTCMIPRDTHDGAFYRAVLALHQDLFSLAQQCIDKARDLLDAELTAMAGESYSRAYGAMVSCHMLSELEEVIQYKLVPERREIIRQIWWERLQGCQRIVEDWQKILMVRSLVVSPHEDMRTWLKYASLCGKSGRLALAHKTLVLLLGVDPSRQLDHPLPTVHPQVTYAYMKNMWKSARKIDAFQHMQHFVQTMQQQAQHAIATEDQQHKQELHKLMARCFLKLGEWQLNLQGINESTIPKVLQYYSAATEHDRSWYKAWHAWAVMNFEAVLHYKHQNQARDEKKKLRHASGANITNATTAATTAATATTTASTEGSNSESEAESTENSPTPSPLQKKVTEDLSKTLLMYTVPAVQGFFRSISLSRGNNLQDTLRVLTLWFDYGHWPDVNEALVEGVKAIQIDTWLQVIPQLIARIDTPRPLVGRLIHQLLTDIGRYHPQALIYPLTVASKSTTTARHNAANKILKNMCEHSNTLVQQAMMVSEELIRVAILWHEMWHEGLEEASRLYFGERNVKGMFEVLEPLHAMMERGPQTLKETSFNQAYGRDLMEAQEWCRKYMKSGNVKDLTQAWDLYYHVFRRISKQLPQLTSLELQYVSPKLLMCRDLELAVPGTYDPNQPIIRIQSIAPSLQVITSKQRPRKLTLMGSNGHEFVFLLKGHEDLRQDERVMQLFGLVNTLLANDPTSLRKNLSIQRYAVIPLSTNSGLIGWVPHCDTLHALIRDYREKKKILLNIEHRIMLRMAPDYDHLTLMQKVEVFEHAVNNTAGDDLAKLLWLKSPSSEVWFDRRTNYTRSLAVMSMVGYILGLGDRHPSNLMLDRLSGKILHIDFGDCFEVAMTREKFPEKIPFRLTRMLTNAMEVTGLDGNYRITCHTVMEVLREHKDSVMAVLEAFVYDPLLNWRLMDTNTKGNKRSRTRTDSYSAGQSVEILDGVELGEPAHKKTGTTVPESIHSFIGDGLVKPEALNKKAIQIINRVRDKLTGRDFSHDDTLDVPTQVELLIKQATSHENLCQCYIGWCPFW
Procedure: The biochemical mTOR assay was carried out by the method described in the Millipore mTOR assay kit (catalogue number 14-770).

Structure (SMILES)	pIC50 [1]	pIC50 [2]	pIC50 [3]	pKd [4]	pIC50 [5]	pIC50 [6]
Cn1cc(-c2cc(-c3cnc(N)c(C#N)c3)ccn2)n(-c2ccc(C(C)(C)C#N)cc2)c1=O [Example A37, 6-Amino-2′-{3-[4-(cyanodimethylmethyl)phenyl]-1-methyl-2-oxo-2,3-dihydro-1H-imidazol-4-yl}-[3,4′]bipyridinyl-5-carbonitrile]	5.00 to 7.00	5.00 to 7.00	5.00 to 7.00	7.00 to 10.00	7.00 to 10.00	
Cn1cc(-c2cc(-c3cnc4[nH]ccc4c3)ccn2)n(-c2ccc(C#N)cc2)c1=O [Example A48, 4-{3-Methyl-2-oxo-5-[4-(1H-pyrrolo[2,3-b]pyridin-5-yl)pyridin-2-yl]-2,3-dihydro-imidazol-1-yl}benzonitrile]	5.00 to 7.00	5.00 to 7.00	5.00 to 7.00	5.00 to 7.00	7.00 to 10.00	
Cn1cc(-c2cc(-c3ccc(NS(C)(=O)=O)cc3)ccn2)n(-c2ccc(N3CCNCC3)c(C(F)(F)F)c2)c1=O [Example A62, N-(4-{2-[1-Methyl-2-oxo-3-(4-piperazin-1-yl-3-trifluoromethylphenyl)-2,3-dihydro-1H-imidazol-4-yl]pyridin-4-yl}phenyl)methanesulfonamide]	< 5.00	< 5.00	< 5.00	< 5.00	7.00 to 10.00	
CCc1cc(-c2c[nH]c3ncc(-c4ccnc(-c5cn(C)c(=O)n5-c5ccc(C(C)(C)C#N)cc5)c4)cc23)nc(N)n1 [Example A99, 2-[4-(5-{4-[3-(2-Amino-6-ethylpyrimidin-4-yl)-1H-pyrrolo[2,3-b]pyridin-5-yl]-pyridin-2-yl}-3-methyl-2-oxo-2,3-dihydroimidazol-1-yl)phenyl]-2-methylpropionitrile]	5.00 to 7.00	5.00 to 7.00	5.00 to 7.00	5.00 to 7.00	7.00 to 10.00	
Cn1cc(-c2cc(-c3cnc(N)c(C#N)c3)ccn2)n(-c2ccc(N3CCNCC3)c(C(F)(F)F)c2)c1=O [Example A65, 6-Amino-2′-[1-methyl-2-oxo-3-(4-piperazin-1-yl-3-trifluoromethylphenyl)-2,3-dihydro-1H-imidazol-4-yl]-[3,4′]bipyridinyl-5-carbonitrile]	5.00 to 7.00	5.00 to 7.00	5.00 to 7.00	7.00 to 10.00	7.00 to 10.00	
Cn1cc(-c2cc(-c3cnc(N)c(-c4ccccc4)c3)ccn2)n(-c2ccc(C(C)(C)C#N)cc2)c1=O [Example A84, 2-{4-[5-(6-Amino-5-phenyl-[3,4′]bipyridinyl-2′-yl)-3-methyl-2-oxo-2,3-dihydroimidazol-1-yl]phenyl}-2-methylpropionitrile]	5.00 to 7.00	7.00 to 10.00	5.00 to 7.00	7.00 to 10.00	7.00 to 10.00	
Cn1cc(-c2cc(-c3cnc(N)c(C(F)(F)F)c3)ccn2)n(-c2ccc(F)c(C(F)(F)F)c2)c1=O [Example A97, 4-(6-Amino-5-trifluoromethyl-[3,4′]bipyridinyl-2′-yl)-3-(4-fluoro-3-trifluoromethyl-phenyl)-1-methyl-1,3-dihydroimidazol-2-one]	5.00 to 7.00	5.00 to 7.00	5.00 to 7.00	5.00 to 7.00	5.00 to 7.00	
CN1CCN(c2cc(C#N)cc(-n3c(-c4cc(-c5cnc6[nH]ccc6c5)ccn4)cn(C)c3=O)c2)CC1 [Example A98, 3-{3-Methyl-2-oxo-5-[4-(1H-pyrrolo[2,3-b]pyridin-5-yl)pyridin-2-yl]-2,3-dihydro-imidazol-1-yl}-5-(4-methylpiperazin-1-yl)benzonitrile]	< 5.00	5.00 to 7.00	5.00 to 7.00	5.00 to 7.00	5.00 to 7.00	
Cn1cc(-c2cc(-c3ccc(=O)[nH]c3)ccn2)n(-c2ccc(C(C)(C)C#N)cc2)c1=O [Example A39, 2-{4-[5-(6-Hydroxy-[3,4′]bipyridinyl-2′-yl)-3-methyl-2-oxo-2,3-dihydroimidazol-1-yl]phenyl}-2-methylpropionitrile]	< 5.00				7.00 to 10.00	5.00 to 7.00
CC(C)(C#N)c1ccc(-n2c(-c3cc(-c4cnc5[nH]ccc5c4)ccn3)c[nH]c2=O)cc1 [Example A28, 2-Methyl-2-(4-{2-oxo-5-[4-(1H-pyrrolo[2,3-b]pyridin-5-yl)pyridin-2-yl]-2,3-dihydroimidazol-1-yl}phenyl)propionitrile]	5.00 to 7.00	7.00 to 10.00	5.00 to 7.00	7.00 to 10.00	7.00 to 10.00	
COc1ccc(-c2ccnc(-c3c[nH]c(=O)n3-c3ccc(N4CCNCC4)c(C(F)(F)F)c3)c2)cn1 [Example A4, 5-(6-Methoxy-[3,4′]bipyridinyl-2′-yl)-1-(4-piperazin-1-yl-3-trifluoromethylphenyl)-1,3-dihydroimidazol-2-one]	5.00 to 7.00	5.00 to 7.00	5.00 to 7.00	5.00 to 7.00	5.00 to 7.00	
CC(=O)N1CCN(c2ccc(-n3c(-c4cc(-c5ccc6[nH]ccc6c5)ccn4)cn(C)c3=O)cc2C(F)(F)F)CC1 [Example A89, 3-[4-(4-Acetylpiperazin-1-yl)-3-trifluoromethylphenyl]-4-[4-(1H-indol-5-yl)pyridin-2-yl]-1-methyl-1,3-dihydroimidazol-2-one]	5.00 to 7.00	5.00 to 7.00	< 5.00	5.00 to 7.00	5.00 to 7.00	
Cc1cc2cc(-c3ccnc(-c4cn(C)c(=O)n4-c4ccc(N5CCN(C)CC5)c(C(F)(F)F)c4)c3)cnc2[nH]1 [Example A88, 1-Methyl-3-[4-(4-methylpiperazin-1-yl)-3-trifluoromethylphenyl]-4-[4-(2-methyl-1H-pyrrolo[2,3-b]pyridin-5-yl)pyridin-2-yl]-1,3-dihydroimidazol-2-one]	5.00 to 7.00	5.00 to 7.00	5.00 to 7.00	5.00 to 7.00	5.00 to 7.00	
Cn1cc(-c2cc(-c3cnc(N)c(C(F)(F)F)c3)ccn2)n(-c2cccc(C#N)c2)c1=O [Example A64, 3-[5-(6-Amino-5-trifluoromethyl-[3,4′]bipyridinyl-2′-yl)-3-methyl-2-oxo-2,3-dihydroimidazol-1-yl]benzonitrile]	5.00 to 7.00	5.00 to 7.00	5.00 to 7.00	7.00 to 10.00	7.00 to 10.00	
